Data set [1] in a line: Stability of budesonide R- and S-isomers with and without SBE7-β-CD (Example 13). In kind it is physicochemical. The protocol: The inventors have also discovered that SAE-CD is capable of stabilizing the isomers of budesonide to different extents. A study to determine if SBE7-β-CD stabilized budesonide solutions and if it preferentially stabilized one isomer was conducted according to Example 13. FIG. 11 is a semi-log plot of the % of initial concentration at each time point for the samples stored at 60 ° C. Loss of budesonide was first order at each temperature.
Solutions of budesonide with and without SBE7-β-CD were prepared at two different pHs (4 and 6) and stored at 2 different temperatures (60° C. and 80° C.). Citrate buffers (50 mM) at each pH value were prepared by mixing differing portions of 50 mM citric acid and 50 mM sodium citrate (tribasic, dihydrate) solutions. To achieve a concentration of budesonide in the buffers without SBE7-β-CD sufficient for accurate measurement, the budesonide was dissolved first in 100% ethyl alcohol. An aliquot of the ethanol/budesonide solution was then added drop-wise with stirring to each buffer solution. The theoretical budesonide concentration was 100 μg/mL with a final ethanolic content of 5% in each buffer. All solution preps and procedures involving budesonide were done in a darkened room under red light. After shaking solutions for 24 hours, both buffer solutions were filtered through Millipore Millex-GV 0.22 μm syringe filters to remove any solid that had precipitated (no significant amounts observed) from the solutions. The final budesonide concentration was about 50 μg/mL. Both the pH 4 and 6 solutions were split in two, and solid SBE7-β-CD was added to one of the portions to create solutions with and without 1% w/v SBE7-β-CD at each pH. Each solution was aliquoted into individual amber vials. They were then placed in ovens at 60° C. and 80° C. Sample vials were removed from the ovens and analyzed by HPLC at 0, 96, 164, and 288 hours. The HPLC assay conditions are summarized below.

Data set [2] can be described thus: Molar ratio SAE-CD:corticosteroid at saturated solubility (phase solubility binding study). It is filed as physicochemical.
The nature of data set [3]: Solubility of selected steroids enhanced by cyclodextrins (phase solubility). As to conditions: thermodynamic from solid.
Setting [4] is: aqueous cyclodextrin solution, aqueous with cosolvent or surfactant or cyclodextrin, Solubility of steroid, (SBE)6.1 γ-CD 0.04 M.
[5] abbreviates: aqueous cyclodextrin solution, aqueous with cosolvent or surfactant or cyclodextrin, Solubility of steroid, (SBE)6.1 γ-CD 0.08 M.
Setting [6] is: aqueous cyclodextrin solution, aqueous with cosolvent or surfactant or cyclodextrin, Solubility of steroid, (SBE)6.7 β-CD 0.0465 M.
Setting [7] is: aqueous cyclodextrin solution, aqueous with cosolvent or surfactant or cyclodextrin, Solubility of steroid, (SBE)6.7 β-CD 0.0950 M.
Where [8] appears, read: aqueous cyclodextrin solution, aqueous with cosolvent or surfactant or cyclodextrin, Solubility of steroid, γ-CD 0.035 M.
[9] abbreviates: aqueous cyclodextrin solution, aqueous with cosolvent or surfactant or cyclodextrin, Solubility of steroid, γ-CD 0.1 M.
Setting [10] is: aqueous cyclodextrin solution, aqueous with cosolvent or surfactant or cyclodextrin, [Steroid] solubility, (SBE)6.1 γ-CD (0.04 M).
[11] abbreviates: aqueous cyclodextrin solution, aqueous with cosolvent or surfactant or cyclodextrin, [Steroid] solubility, Captisol (0.04 M).
The mark [12] stands for this setting: water, Solubility of steroid, H2O, no CD.
[13] abbreviates: water, [Steroid] Intrinsic Solubility (in H2O), in H2O.
Where [14] appears, read: aqueous cyclodextrin solution, aqueous with cosolvent or surfactant or cyclodextrin, Solubility of steroid, (SBE)5.2 γ-CD 0.1 M.
[15] abbreviates: aqueous cyclodextrin solution, aqueous with cosolvent or surfactant or cyclodextrin, Solubility of steroid, (SBE)7 α-CD 0.04 M.
Where [16] appears, read: aqueous cyclodextrin solution, aqueous with cosolvent or surfactant or cyclodextrin, Solubility of steroid, (SBE)7 α-CD 0.08 M.
Setting [17] is: aqueous cyclodextrin solution, aqueous with cosolvent or surfactant or cyclodextrin, Solubility of steroid, (SBE)9.7 γ-CD […].
The mark [18] stands for this setting: aqueous cyclodextrin solution, aqueous with cosolvent or surfactant or cyclodextrin, Solubility of steroid, (SPE)5.4 γ-CD 0.04 M.
Setting [19] is: aqueous cyclodextrin solution, aqueous with cosolvent or surfactant or cyclodextrin, Solubility of steroid, (SPE)5.4 γ-CD 0.08 M.
The mark [20] stands for this setting: aqueous cyclodextrin solution, aqueous with cosolvent or surfactant or cyclodextrin, Solubility of steroid, (SPE)7 β-CD 0.04 M.
Setting [21] is: aqueous cyclodextrin solution, aqueous with cosolvent or surfactant or cyclodextrin, Solubility of steroid, (SPE)7 β-CD 0.08 M.
Where [22] appears, read: aqueous cyclodextrin solution, aqueous with cosolvent or surfactant or cyclodextrin, Solubility of steroid, α-CD 0.08 M.
Setting [23] is: aqueous cyclodextrin solution, aqueous with cosolvent or surfactant or cyclodextrin, Solubility of steroid, β-CD 0.015M.

The text below walks through data of patent publication US20070020196A1, “Inhalant formulation containing sulfoalkyl ether cyclodextrin and corticosteroid prepared from a unit dose suspension” (priority 2003, published 2007).

Consider `CCC[C@H]1O[C@@H]2C[C@H]3[C@@H]4CCC5=CC(=O)C=C[C@]5(C)[C@H]4[C@@H](O)C[C@]3(C)[C@]2(C(=O)CO)O1` (single isomer, unassigned) [S-isomer], for which the “With/without CAPTISOL ratio of rate constants” value was 0.323 in data set [1] (pH 4, 60° C.); 0.491 in data set [1] (pH 4, 80° C.); 0.193 in data set [1] (pH 6, 60° C.); 0.384 in data set [1] (pH 6, 80° C.). In addition, the “Pseudo 1st Order Rate constant” value in data set [1] (pH 4 no CAPTISOL, 60° C.) stood at 0.0037 h⁻¹; in data set [1] (pH 4 no CAPTISOL, 80° C.), 0.00131 h⁻¹; in data set [1] (pH 4 w/ CAPTISOL, 60° C.), 0.00012 h⁻¹; in data set [1] (pH 4 w/ CAPTISOL, 80° C.) it was 0.000644 h⁻¹; in data set [1] (pH 6 no CAPTISOL, 60° C.), 0.001872 h⁻¹; in data set [1] (pH 6 no CAPTISOL, 80° C.), 0.00661 h⁻¹. In addition, the “Pseudo 1st Order Rate constant” value is 0.000361 h⁻¹ in data set [1] (pH 6 w/ CAPTISOL, 60° C.) and 0.00254 h⁻¹ in data set [1] (pH 6 w/ CAPTISOL, 80° C.).

As for `CC1(C)O[C@@H]2C[C@H]3[C@@H]4CCC5=CC(=O)C=C[C@]5(C)[C@@]4(F)[C@@H](O)C[C@]3(C)[C@]2(C(=O)CO)O1` [Triamcinolone acetonide, triamcinolone acetonide], the “Approximate Molar Ratio at Saturated Solubility of Corticosteroid (SAE-CD: corticosteroid)” value (“Approximate Molar Ratio” for short) in data set [2] (SAE-β-CD) was approximately 9. Besides, the solubility (in general, the dissolved amount per volume that the medium holds) in data set [3] (setting [4]) was 10600 µM; in data set [3] (setting [5]), 23900 µM; in data set [3] (setting [6]), 4570 µM; in data set [3] (setting [7]) it was 10200 µM; in data set [3] (setting [8]) it was 1980 µM; in data set [3] (setting [9]), 1390 µM. Besides, the solubility was 10600 µM in data set [3] (setting [10]), 4570 µM in data set [3] (setting [11]), 35.6 µM in data set [3] (setting [12]) and 35.6 µM in data set [3] (setting [13]).

On to `C[C@@H]1C[C@H]2[C@@H]3CCC4=CC(=O)C=C[C@]4(C)[C@@]3(Cl)[C@@H](O)C[C@]2(C)[C@@]1(OC(=O)c1ccco1)C(=O)CCl` [Mometasone furoate, mometasone furoate], for which the “Approximate Molar Ratio” value in data set [2] (SAE-α-CD) is recorded as approximately 141; in data set [2] (SAE-β-CD) it was approximately 274; in data set [2] (SAE-γ-CD) it was approximately 101. For the same compound, the solubility came to 939 µM in data set [3] (setting [14]); 415 µM in data set [3] (setting [4]); 929 µM in data set [3] (setting [5]); 164 µM in data set [3] (setting [6]); 311 µM in data set [3] (setting [7]); 301 µM in data set [3] (setting [15]). Further, the solubility in data set [3] (setting [16]) was found to be 355 µM; in data set [3] (setting [17]), 940 µM; in data set [3] (setting [18]) it was 287 µM; in data set [3] (setting [19]) it was 513 µM; in data set [3] (setting [20]), 72.3 µM; in data set [3] (setting [21]), 108 µM. For the same compound, the solubility in data set [3] (setting [22]) is 2.7 µM; in data set [3] (setting [23]), 13.6 µM; in data set [3] (setting [8]) it was 141 µM; in data set [3] (setting [9]) it was 658 µM; in data set [3] (setting [10]) it was 415 µM; in data set [3] (setting [11]), 164 µM. Moreover, the solubility in data set [3] (setting [12]) and in data set [3] (setting [13]) was 18.2 µM throughout.

`C[C@@H]1C[C@H]2[C@@H]3CCC4=CC(=O)C=C[C@]4(C)[C@@]3(Cl)[C@@H](O)C[C@]2(C)[C@@]1(O)C(=O)CCl` [Mometasone, mometasone]: the “Approximate Molar Ratio” value in data set [2] (SAE-α-CD) is recorded as approximately 73; in data set [2] (SAE-β-CD), approximately 33. The solubility is 8890 µM in data set [3] (setting [14]); 8410 µM in data set [3] (setting [4]); 14200 µM in data set [3] (setting [5]); 1220 µM in data set [3] (setting [6]); 2260 µM in data set [3] (setting [7]); 550 µM in data set [3] (setting [15]). Besides, the solubility in data set [3] (setting [16]) amounted to 1170 µM; in data set [3] (setting [17]) it was 8900 µM; in data set [3] (setting [19]), 14700 µM; in data set [3] (setting [20]) it was 1220 µM; in data set [3] (setting [21]), 2230 µM; in data set [3] (aqueous cyclodextrin solution, aqueous with cosolvent or surfactant or cyclodextrin, Solubility of steroid, α-CD 0.04 M), 84 µM. Further, the solubility in data set [3] (setting [22]) worked out at 285 µM; in data set [3] (setting [23]) it was 129 µM; in data set [3] (setting [8]), 27.1 µM; in data set [3] (setting [9]), 0.9 µM.

On to `C[C@@H]1C[C@H]2[C@@H]3C[C@H](F)C4=CC(=O)C=C[C@]4(C)[C@@]3(F)[C@@H](O)C[C@]2(C)[C@@]1(O)C(=O)SCF` [Fluticasone, fluticasone], for which the “Approximate Molar Ratio” value in data set [2] (SAE-β-CD) was approximately 32. Also, the solubility in data set [3] (aqueous cyclodextrin solution, aqueous with cosolvent or surfactant or cyclodextrin, Solubility of steroid, (SBE)2.4 β-CD 0.04 M) came out at 128 µM; in data set [3] (setting [14]), 14400 µM; in data set [3] (setting [4]), 5760 µM; in data set [3] (setting [5]), 9490 µM; in data set [3] (setting [6]) it was 1260 µM; in data set [3] (setting [7]), 2160 µM. In addition, the solubility was determined as 8950 µM in data set [3] (setting [17]); 7600 µM in data set [3] (setting [18]); 13900 µM in data set [3] (setting [19]); 939 µM in data set [3] (setting [20]); 1510 µM in data set [3] (setting [21]); 822 µM in data set [3] (setting [9]). The solubility in data set [3] (setting [12]) is 1.6 µM.

Turning to `CCC[C@@H]1O[C@@H]2C[C@H]3[C@@H]4CCC5=CC(=O)C=C[C@]5(C)[C@H]4[C@@H](O)C[C@]3(C)[C@]2(C(=O)CO)O1` (single isomer, unassigned) [R-isomer], the “With/without CAPTISOL ratio of rate constants” value in data set [1] (pH 4, 60° C.) amounted to 0.547; in data set [1] (pH 4, 80° C.) it was 0.607; in data set [1] (pH 6, 60° C.) it was 0.385; in data set [1] (pH 6, 80° C.), 0.529. Also, the “Pseudo 1st Order Rate constant” value amounted to 0.00109 h⁻¹ in data set [1] (pH 4 no CAPTISOL, 60° C.); 0.003704 h⁻¹ in data set [1] (pH 4 no CAPTISOL, 80° C.); 0.000597 h⁻¹ in data set [1] (pH 4 w/ CAPTISOL, 60° C.); 0.00225 h⁻¹ in data set [1] (pH 4 w/ CAPTISOL, 80° C.); 0.00432 h⁻¹ in data set [1] (pH 6 no CAPTISOL, 60° C.); 0.0138 h⁻¹ in data set [1] (pH 6 no CAPTISOL, 80° C.). The “Pseudo 1st Order Rate constant” value in data set [1] (pH 6 w/ CAPTISOL, 60° C.) came out at 0.001661 h⁻¹; in data set [1] (pH 6 w/ CAPTISOL, 80° C.), 0.00732 h⁻¹.
